Source: patent US5776962A, “Lactone compounds for treating patient with precancerous lesions” (priority 1995, dated 1998)
“Also recorded” adds a separate entry of the source. Read-outs that look alike come from different tables or passages of the source.

What was measured:
[1] = test system: HT-29 human colonic adenocarcinoma cells; test: Sulforhodamine B Assay, tumor cell growth inhibition, HT-29; assay type: cell-based; conditions: for SELECTIVITY INDEX (HT-29 IC50 / PGE2 IC50): ratio of HT-29 IC50 to PGE2 IC50
Method: The compounds of this invention were assayed for their effect on various cell lines representative of precancerous lesions to ascertain the degree of tumor growth inhibition following treatment with compounds of this invention. The cell lines employed for these experiments were well characterized, and are used by the United States National Cancer Institute in their screening program for new anti-cancer drugs. Growth inhibition of this cell line is thought to be indicative of a benefit on precancerous lesions and neoplasms.
Tumor cell cytotoxicity was assessed using the Sulforhodamine B Assay. In this assay, tumor cells were plated in 96-well plates and treated with drug-containing media for seven days (continuous exposure). At the end of the exposure period, the cells were fixed and stained with sulforhodamine B (a pink fluorescent dye). The dye was then solubilized, and the optical density of the resulting pink solution determined on a 96-well plate reader. The mean dye intensity of the treated wells was then divided by the mean dye intensity in the control wells (6 wells of each) to determine the effect of the drug on the cells. Dye intensity is proportional to the number of cells or amount of protein per well. The resultant "percent of control" value then represents the degree of growth inhibition caused by the drug.
For each experiment, an IC50 value was determined and used for comparative purposes. This value is equivalent to the concentration of drug needed to inhibit tumor cell growth by 50%. IC50 values were obtained graphically by connecting the mean values for each drug concentration tested. Each experiment included at least six wells per drug concentration. Concentration was plotted on a log scale on the X-axis.

prostaglandin synthesis = conditions: background; cited from earlier work
[2] = background; cited from earlier work
polyps = conditions: patients; background; cited from earlier work
[3] = test system: prostaglandin E2 (PGE2) production by differentiated HL-60 cells (anti-PG synthetase activity); test: Inhibition of prostaglandin E2 (PGE2) production in differentiated HL-60 cells after A23187 stimulation (EIA); assay type: cell-based, human; conditions: for IC50: Table III, differentiated HL-60, A23187 (5×10^-6 M) stimulation, read-out: (Anti-PG Synthetase activity) PGE2 I.C.50
Method: Compounds of this invention, as well as several others (see Table II below), were evaluated to determine whether they inhibited the production of prostaglandin E2 (PGE2), according to the procedure below. […] Secreted […] is measured using an enzyme immunoassay (EIA) kit.
Specifically, HL-60 is a human promyelocytic cell line which may be differentiated in mature granulocytes in the presence of compounds such as dimethyl sulfoxide (DMSO). These cells are obtained from the American Type Culture Collection (ATCC:CCL240).
The differentiated HL-60 cells (3×10^6 cells/ml) are incubated for 15 min at 37° C. in the presence of the compounds listed in Table II at the desired concentration. Cells are then stimulated by A23187 (5×10^-6 M) for 15 min. Secreted PGE2 into the external medium is measured by EIA using a commercially available EIA kit.
The quantity of PGE2 secreted is expressed in ng/10^6 cells using a standard curve. Data are converted using a curve fitting of the four parameter logistic equation: [formula] […] The IC50 values are determined using Hill equation.

[4] = background; prophylactic use / conventional NSAIDs; cited from earlier work
[5] = Homo sapiens, Table II, cell line HT-29, read-out: IC50
[6] = Homo sapiens, Table III, HT-29, read-out: (Anti-proliferative activity) HT-29 I.C.50
[7] = Table II, cell line HT-29, read-out: IC50
[8] = Table III, HT-29, read-out: (Anti-proliferative activity) HT-29 I.C.50

CC12OC(=O)C=C1c1cc(F)ccc1/C2=C\c1ccccc1 (racemic) [Example 27, rac-(E)-1-(2'-buten-1',4'-olido)-[3',4':1,2]-6-fluoro-2-methyl-3-benzylidene-indan]
IC50 [1, 5]: 340 nM

CC1=C(CC(=O)O)c2cc(F)ccc2/C1=C\c1ccc(S(C)(=O)=O)cc1 [Sulfone, reference compound]
inhibition of prostaglandin synthesis (in words) (prostaglandin synthesis): inactive as an inhibitor of prostaglandin synthesis | SELECTIVITY INDEX (HT-29 IC50 / PGE2 IC50) ([1]; Table III): 1.19

COc1cc(/C=C2\c3ccc(F)cc3C3=CC(=O)OC32C)cc(OC)c1OC (racemic) [Example 28, rac-(E)-1-(2'-buten-1',4'-olido)-[3',4':1,2]-6-fluoro-2-methyl-3-(3,4,5-trimethoxybenzylidene)-indan]
IC50 [1, 5]: 280 nM

CC1=C(CC(=O)O)c2cc(F)ccc2/C1=C\c1ccc([S+](C)[O-])cc1 (centres unmarked) [Sulindac]
metabolism (in words) [2]: converted by liver enzymes to the corresponding sulfide; also recorded: metabolized to sulfone compound | effect on polyps (in words) (polyps): Polyps virtually disappear

CC12OC(=O)CC1(O)c1cc(F)ccc1/C2=C\c1ccc(S(C)(=O)=O)cc1 (racemic) [Example 11, rac-threo-(E)-1-Hydroxy-1-(butan-1',4'-olido)-[3',4':1,2]-6-fluoro-2-methyl-3-(p-methylsulfonylbenzylidene)-indan]
IC50 ([1]; Homo sapiens, Table II, cell line HT-29 p 135, read-out: IC50): 100000 nM

COc1ccc2c(c1)C1=CC(=O)OC1(C)N2C(=O)c1ccc(Cl)cc1 (racemic) [Example 36, rac-3-(2'-Buten-1',4'-olido)-[3',4':3,2]-1-(4-chlorobenzoyl)-5-methoxy-2-methyl-2,3-dihydroindole]
IC50 ([3]; Homo sapiens): 80 nM | IC50 [1, 5]: 2000 nM | IC50 [1, 6]: 2000 nM | SELECTIVITY INDEX (HT-29 IC50 / PGE2 IC50) ([1]; Table III): 25

rac-threo-(E)-1-(butan-1',4'-olido)-[3',4':1,2]-6-fluoro-2-methyl-3-(p-methylsulfonylbenzylidene)-1S-indanyl-glutathione [Example 34]
IC50 [3]: > 100000 nM | IC50 [1, 7]: 3600 nM | IC50 [1, 8]: 3600 nM | SELECTIVITY INDEX (HT-29 IC50 / PGE2 IC50) ([1]; Table III): < 0.036

CCN(CC)CCS[C@]12CC(=O)O[C@@]1(C)N(C(=O)c1ccc(Cl)cc1)c1ccc(OC)cc12 (relative stereo) [Example 37, rac-threo-3-(Butan-1',4'-olido)-[3',4':3,2]-3-(N,N'-diethylaminoethanethio)-1-(4-chlorobenzoyl)-5-methoxy-2-methyl-2,3-dihydroindole]
IC50 [1, 5]: 29000 nM

C[C@@]12OC(=O)C[C@]1(SCC(=O)O)c1cc(F)ccc1/C2=C\c1ccc(S(C)(=O)=O)cc1 (relative stereo) [Example 31, rac-threo-(E)-1-(butan-1',4'-olido)-[3',4':1,2]-6-fluoro-2-methyl-3-(p-methylsulfonylbenzylidene)-1S-indanyl-mercaptoacetic acid]
IC50 [1, 5]: 50000 nM

CC12OC(=O)CC1(C#N)c1cc(F)ccc1/C2=C\c1ccc(S(C)(=O)=O)cc1 (racemic) [Example 13, rac-threo-(E)-1-Cyano-1-(butan-1',4'-olido)-[3',4':1,2]-6-fluoro-2-methyl-3-(p-methylsulfonylbenzylidene)-indan]
IC50 ([1]; Homo sapiens, Table II, cell line HT-29 p 136 (?), read-out: IC50): > 50000 nM

rac-threo-(E)-1-N,N-Diethylamino-1-(butan-1',4'-olido)-[3',4':1,2]-6-fluoro-2-methyl-3-(p-methylsulfonylbenzylidene)-indan [Example 30]
IC50 [3]: > 100000 nM | IC50 [1, 7]: 350 nM | IC50 [1, 8]: 350 nM | SELECTIVITY INDEX (HT-29 IC50 / PGE2 IC50) ([1]; Table III): < 0.0035

CC12OC(=O)C=C1c1cc(F)ccc1/C2=C\c1ccc(S(C)(=O)=O)cc1 (racemic) [Example 3, rac-(E)-1-(2'-Buten-1',4'-olido)-[3',4':1,2]-6-fluoro-2-methyl-3-(p-methylsulfonylbenzylidene)-indan]
anti-PG-synthetase / anti-prostaglandin activity (in words) [3]: essentially lacking anti-prostaglandin activity at therapeutic concentrations | anti-proliferative activity (in words) [1]: outstanding anti-proliferative activity

rac-ribo-(E)-1-Triazolo-[2',3':1",3"]-1-(butan-1',4'-olido)-[3',4':1,2]-6-fluoro-2-methyl-3-(methylsulfonylbenzylidene)-indan [Example 29]
IC50 [3]: 1500 nM | IC50 [1, 7]: 2400 nM | IC50 [1, 8]: 2400 nM | SELECTIVITY INDEX (HT-29 IC50 / PGE2 IC50) ([1]; Table III): 1.6

CSc1ccc(/C=C2/C(C)=C(CC(=O)O)c3cc(F)ccc32)cc1 [Sulindac Sulfide, reference compound]
anti-PG-synthetase / anti-prostaglandin activity (in words) [3]: high degree of anti-PG-synthetase activity | inhibition at 10 µM ([3]; Homo sapiens, HL-60, read-out: inhibit PGE2 production): 100% | inhibition of prostaglandin synthesis (in words) (prostaglandin synthesis): active moiety as a prostaglandin inhibitor | anti-proliferative activity (in words) [1]: good anti-proliferative activity | side effects (in words) [4]: associated with the side effects of conventional NSAIDs

CC12OC(=O)CC1(SC[C@H](N)C(=O)O)c1cc(F)ccc1/C2=C\c1ccc(S(C)(=O)=O)cc1 (mixture of isomers) [Example 32, rac-threo-(E)-1-(butan-1',4'-olido)-[3',4':1,2]-6-fluoro-2-methyl-3-(p-methylsulfonylbenzylidene)-1S-indanyl-L-cysteine]
IC50 [1, 5]: 2100 nM

CC(=O)N[C@@H](CSC12CC(=O)OC1(C)/C(=C/c1ccc(S(C)(=O)=O)cc1)c1ccc(F)cc12)C(=O)O (mixture of isomers) [Example 33, rac-threo-(E)-1-(butan-1',4'-olido)-[3',4':1,2]-6-fluoro-2-methyl-3-(p-methylsulfonylbenzylidene)-1S-indanyl-N-acetylcysteine]
IC50 [1, 5]: 30000 nM

CCN(CC)CCSC12CC(=O)OC1(C)/C(=C/c1ccc(S(C)(=O)=O)cc1)c1ccc(F)cc12 (racemic) [Example 12, rac-threo-(E)-1-(N,N'-diethylaminoethanethio)-1-(butan-1',4'-olido)-[3',4':1,2]-6-fluoro-2-methyl-3-(p-methylsulfonylbenzylidene)-indan]
IC50 ([3]; Homo sapiens): > 100000 nM | IC50 [1, 6]: 430 nM | SELECTIVITY INDEX (HT-29 IC50 / PGE2 IC50) ([1]; Table III): < 0.0043
